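Assay format: 96-well plates, 48-hour exposure. GI50 = concentration required for 50% inhibition of growth.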 The source made the active and inactive calls. Cut-off read from the data, not from the text of the source: active = GI50 up to about 1.1 µM and inactive = higher.
Assays:
Test in all cases: DTP human tumour cell line panel, 48 h
SK-MEL-2 = test system: SK-MEL-2
NCI-H460 = test system: NCI-H460
A549 = test system: A549
NCI/ADR-RES = test system: NCI/ADR-RES
SK-OV-3 = test system: SK-OV-3
SNB-19 = test system: SNB-19
CAKI-1 = test system: CAKI-1
SF-295 = test system: SF-295
ACHN = test system: ACHN
OVCAR-5 = test system: OVCAR-5
SNB-75 = test system: SNB-75
NCI-H522 = test system: NCI-H522
HCC 2998 = test system: HCC 2998
DU-145 = test system: DU-145
NCI-H226 = test system: NCI-H226
COLO 205 = test system: COLO 205
TK-10 = test system: TK-10
HL-60 = test system: HL-60
NCI-H23 = test system: NCI-H23
HT-29 = test system: HT-29

Measured: GI50

Oc1ccc2ccccc2c1/N=N/c1cccc2ccccc12
inactive: SK-MEL-2 > 100 µM | NCI-H460 > 100 µM | A549 > 100 µM | NCI/ADR-RES > 100 µM | SK-OV-3 52.6 µM | SNB-19 47.6 µM | CAKI-1 > 100 µM | SF-295 > 100 µM | ACHN > 100 µM | OVCAR-5 > 100 µM | SNB-75 23.6 µM | NCI-H522 52.4 µM | HCC 2998 > 100 µM | DU-145 > 100 µM | NCI-H226 > 100 µM | COLO 205 > 100 µM | TK-10 > 100 µM | HL-60 > 100 µM | NCI-H23 > 100 µM

O=C1OC2c3ccccc3C(=O)C2(c2ccccc2)N1c1ccccc1 (centres undefined)
inactive: SK-MEL-2 > 200 µM | NCI-H460 > 200 µM | A549 > 200 µM | NCI/ADR-RES > 200 µM | SK-OV-3 > 200 µM | SNB-19 > 200 µM | CAKI-1 121 µM | SF-295 > 200 µM | ACHN > 200 µM | OVCAR-5 > 200 µM | SNB-75 45.4 µM | NCI-H522 > 200 µM | HCC 2998 > 200 µM | DU-145 > 200 µM | NCI-H226 > 200 µM | COLO 205 86.1 µM | TK-10 > 200 µM | HL-60 29.9 µM | NCI-H23 > 200 µM | HT-29 > 200 µM

C[C@H]1CN[C@@H]2[C@@H](C)[C@H]3[C@@H](C[C@H]4[C@@H]5CC[C@H]6C[C@@H](N)CC[C@]6(C)[C@H]5CC[C@]34C)O[C@@]2(O)C1
inactive: SK-MEL-2 3.06 µM | NCI-H460 2.32 µM | A549 3.8 µM | NCI/ADR-RES 2.54 µM | SK-OV-3 6.67 µM | SNB-19 2.07 µM | CAKI-1 2.37 µM | SF-295 2.92 µM | ACHN 2.65 µM | OVCAR-5 5.47 µM | SNB-75 2.44 µM | NCI-H522 2.24 µM | HCC 2998 1.8 µM | DU-145 4.03 µM | NCI-H226 2.38 µM | COLO 205 1.51 µM | TK-10 2.53 µM | HL-60 1.64 µM | NCI-H23 12.9 µM | HT-29 1.19 µM

COc1cc(C(c2ccccc2)N2C(=O)CC[C@H]2C(=O)O)cc(OC)c1OC (some centres undefined)
inactive: SK-MEL-2 > 100 µM | NCI-H460 > 100 µM | A549 > 100 µM | NCI/ADR-RES > 100 µM | SK-OV-3 > 100 µM | SNB-19 > 100 µM | CAKI-1 > 100 µM | SF-295 > 100 µM | ACHN > 100 µM | OVCAR-5 > 100 µM | SNB-75 > 100 µM | NCI-H522 > 100 µM | HCC 2998 > 100 µM | DU-145 > 100 µM | NCI-H226 > 100 µM | COLO 205 > 100 µM | TK-10 > 100 µM | HL-60 > 100 µM | NCI-H23 > 100 µM | HT-29 > 100 µM

From ChEMBL document CHEMBL1201862, “PubChem BioAssay data set” (2004)
